Assay results published in US11007269B2, “P53 degradation inducing molecule and pharmaceutical composition” (Tokyo University of Science Foundation, priority 2016, dated 2021).

Target: endogenous wild-type p53 protein (Homo sapiens, UniProt P04637)
Experiment: Western blot of endogenous wild-type p53 protein degradation in HeLa cells, with rescue by proteasome inhibitor
Format: cell-based
Set-up: endogenous in cells
Method: In Example 3, degradation (knockdown) of an endogenous wild-type p53 protein in HeLa cells (human cervical cancer cells) to which TIBC-CANDDY_MLN has been added was evaluated by Western blot analysis. At the same time, a rescue of degradation of the p53 protein by a proteasome inhibitor (MLN2238) was evaluated.
HeLa cells were seeded in a 24-well plate at a cell density of 4×10^4 cells/well, and then cultured under conditions of 37° C. and 5 vol % CO2 for 16 hours.
After 16 hours from cell seeding, TIBC-CANDDY_MLN was added to HeLa cells as follows. As a medium, a serum-free medium (37° C.) in which 1 mass % L-glutamine solution (Sigma-Aldrich) was added to D-MEM (high D-glucose, phenol red, sodium pyruvate (Wako Pure Chemical Industries, Ltd.)) was used. It is noted that the L-glutamine solution was added immediately before use. A DMSO solution containing TIBC-CANDDY_MLN was mixed with the medium so that the concentration of DMSO was 1 vol %, and added to each well at 500 μL/well, and cultured under conditions of 37° C. and 5 vol % CO2. As a control, DMSO was used. Furthermore, in addition to an experiment group in which a DMSO solution containing TIBC-CANDDY_MLN had been added, an experiment group in which a DMSO solution containing both TIBC-CANDDY_MLN and MLN2238, or MLN2238 had been added was prepared. […]

Sequence of endogenous wild-type p53 protein (P04637 whole entry): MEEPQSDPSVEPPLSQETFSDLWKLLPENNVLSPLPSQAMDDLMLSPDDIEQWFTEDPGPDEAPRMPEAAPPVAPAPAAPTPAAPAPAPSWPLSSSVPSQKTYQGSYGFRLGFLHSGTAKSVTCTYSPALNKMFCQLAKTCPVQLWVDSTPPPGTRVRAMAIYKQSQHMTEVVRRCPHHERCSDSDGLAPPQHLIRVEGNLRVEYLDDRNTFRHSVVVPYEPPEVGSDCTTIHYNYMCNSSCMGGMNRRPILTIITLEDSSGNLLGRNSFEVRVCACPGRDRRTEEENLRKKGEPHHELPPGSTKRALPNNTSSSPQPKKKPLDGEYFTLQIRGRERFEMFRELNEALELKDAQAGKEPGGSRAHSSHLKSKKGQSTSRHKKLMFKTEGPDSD

- amount of the endogenous wild-type p53 protein (Western blot) (24 hours after addition, vs DMSO control): reduced
SMILES: CC(C)C[C@H](NC(=O)CNC(=O)c1cc(Cl)ccc1Cl)C(=O)NCCCCCCC(=O)Nc1ccc(C(=O)/C=C/c2ccc(I)cc2)cc1 [TIBC-CANDDY_MLN]
- amount of the wild-type p53 protein when proteasome inhibitor MLN2238 is added as well (rescue) (24 hours, both TIBC-CANDDY_MLN and MLN2238 added): increased as compared with the control (DMSO)
